According to patent US9079821B2, “Quinone based nitric oxide donating compounds” (NICOX S.A., priority 2011, dated 2015):

What was measured:
[1] = Pharmacokinetic profile in rats (blood 15N-nitrite levels); format: in vivo, rat; conditions: rat, in vivo, po, 30 mg/kg
Procedure: (§1) The absorption and in vivo NO-donating property of the compounds of the invention were assessed by the evaluation of blood ^15N-nitrite levels following oral administration.
Tested Compounds: • 5-(2,4,5-trimethyl-3,6-dioxocyclohexa-1,4-dienylpentyl nitrate-nitrogen-15 which corresponds to compound (1) containing nitrogen-15 (^15N-Compound (1)); • 5-(4,5-dimethoxy-2-methyl-3,6-dioxocyclohexa-1,4-dienyl)pentyl nitrate-nitrogen-15 which corresponds to compound (2) containing nitrogen-15 (^15N-Compound (2)); • 4-(2,4,5-trimethyl-3,6-dioxocyclohexa-1,4-dienyl)butyl nitrate-nitrogen-15 which corresponds to compound (3) containing nitrogen-15 (^15N-Compound (3)); • 4-(4,5-dimethoxy-2-methyl-3,6-dioxocyclohexa-1,4-dienyl)butyl nitrate-nitrogen-15 which corresponds to compound (4) containing nitrogen-15 (^15N-Compound (4)); • 10-(2,4,5-trimethyl-3,6-dioxocyclohexa-1,4-dienyl)decyl nitrate-nitrogen-15 which corresponds to compound (5) containing nitrogen-15 (^15N-Compound (5)); • 10-(4,5-dimethoxy-2-methyl-3,6-dioxocyclohexa-1,4-dienyl)decyl nitrate-nitrogen-15 which corresponds to compound (6) containing nitrogen-15 (^15N-Compound (6)); • 3-(3-(4,5-dimethoxy-2-methyl-3,6-dioxocyclohexa-1,4-dienyl)propoxy)propyl nitrate-nitrogen-15 which corresponds to compound (14) containing nitrogen-15 (^15N-Compound (14)); • 6-(2,4,5-trimethyl-3,6-dioxocyclohexa-1,4-dienyl)hexyl nitrate-nitrogen-15 which corresponds to compound (15) containing nitrogen-15 (^15N-Compound (15)); • 6-(4,5-dimethoxy-2-methyl-3,6-dioxocyclohexa-1,4-dienyl)hexyl nitrate-nitrogen-15 which corresponds to compound (16) containing nitrogen-15 (^15N-Compound (16)); • 11-(4,5-dimethoxy-2-methyl-3,6-dioxocyclohexa-1,4-dienyl)-undecane-1,2-diyl dinitrate-nitrogen-15 which corresponds to compound (17) containing nitrogen-15 (^15N-Compound (17)); • 8-(5-methoxy-2,4-dimethyl-3,6-dioxocyclohexa-1,4-dienyl)octyl nitrate-nitrogen—which corresponds to compound (19) containing nitrogen-15 (^15N-Compound (19)); • 2-(3-(4,5-dimethoxy-2-methyl-3,6-dioxocyclohexa-1,4-dienyl)propoxy)ethyl nitrate-nitrogen-15 which corresponds to compound (20) containing nitrogen-15 (^15N-Compound (20)); • 6-(3-methyl-1,4-dioxo-1,4-dihydronaphthalen-2-yl)hexyl nitrate-nitrogen-15 which corresponds to compound (23) containing nitrogen-15 (^15N-Compound (23)); • 3-(3-(3-methyl-1,4-dioxo-1,4-dihydronaphthalen-2-yl)propoxy)propyl nitrate-nitrogen-15 which corresponds to compound (25) containing nitrogen-15 (^15N-Compound (25)); • 6-(5-methoxy-2,4-dimethyl-3,6-dioxocyclohexa-1,4-dienyl)hexyl nitrate-nitrogen-15 which corresponds to compound (28) containing nitrogen-15 (^15N-Compound (28)); • 6-(4-methoxy-2,5-dimethyl-3,6-dioxocyclohexa-1,4-dienyl)hexyl nitrate-nitrogen-15 which corresponds to compound (29) containing nitrogen-15 (^15N-Compound (29)); • 8-(4-methoxy-2,5-dimethyl-3,6-dioxocyclohexa-1,4-dienyl)octyl nitrate-nitrogen-15 which corresponds to compound (32) containing nitrogen-15 (^15N-Compound (32)); • 8-(2,4,5-trimethyl-3,6-dioxocyclohexa-1,4-dienyl)octyl nitrate-nitrogen-15 which corresponds to compound (34) containing nitrogen-15 (^15N-Compound (34)); • 5-isorbide mononitrate containing nitrogen-15 (5-ISM^15N).
(§2) Cannulated SD rats were orally treated with ^15N-Compounds (6) at 30 mg/kg, 5-ISM^15N (30 mg/kg), or ^15N-Compounds (1)-(5), 14)-(17), (19), (20), (23), (25), (28), (29), (32), (34) at 30 mg/kg. At each time point (5, 10, 15, 30, 60, 180, 360 and 1440 min) blood was taken using heparin to avoid blood clotting. Blood samples were immediately protein crushed. Samples were analyzed by LC-MS/MS.
In Table 7 are reported ^15N-nitrite blood levels following oral administration of SD rats with 5-ISM^15N (30 mg/kg) or with ^15N-labeled corresponding compounds of the invention (30 mg/kg).

[2] = Pharmacokinetic profile in mice (blood 15N-nitrite levels); format: in vivo; conditions: CD1 mice
Procedure: as §1
Tested Compounds: • 10-(4,5-dimethoxy-2-methyl-3,6-dioxocyclohexa-1,4-dienyl)decyl nitrate-nitrogen-15 which correspond to compound (6) containing nitrogen-15 (^15N-Compound (6)); • 5-isorbide mononitrate containing nitrogen-15 (5-ISM^15N)
Male CD1 mice (n=3/time point) were orally treated with ^15N-Compound (6) at 100 mg/kg or 5-ISM^15N (30 mg/kg). At each time point (5, 10, 15, 30, 60, 120, 240, 360, 480 and 1440 min) blood was taken by cardiac puncture using heparin to avoid blood clotting. Blood samples were immediately protein crushed. Samples were analyzed by LC-MS/MS. ^15N-nitrite levels following oral administration of Compound (6) (100 mg/kg) or 5-ISM^15N (30 mg/kg) in CD1 mice are reported in Table 6.

[3] = tested on: rat L-NAME-induced hypertension; assay: Rat L-NAME-induced hypertension, systolic blood pressure after single oral dose; format: in vivo; conditions: for Delta vs basal (mmHg): 5-ISMN 30 mg/kg oral, L-NAME 50 mg/kg i.p.
Procedure: To assess the in vivo NO-dependent activity, Compound (6) was evaluated for systolic blood pressure (SBP) reduction efficacy in a rat model of NO-deprivation induced by L-NAME and compared with 5-ISMN.
(§3) Fasted male SD rats (250-300 g, n=3-5 per group), obtained from Harlan Italy (Correzzana, Milan, Italy) were orally treated with tested compounds or vehicle (DMSO:Methocel 1% 2/98 v/v) in a total volume of 4 ml/kg by gavage. At each time point (1, 3, 6 and 24 h) animals were deeply anesthetized with Zoletil® 100 (3 mg/kg), given intramuscularly. Thereafter, a pressure catheter (Samba Sensors, Harvard Apparatus, UK) was introduced into the common carotid artery for central blood pressure measurement. Pressure transducer was connected to a personal computer, in order to allow real time monitor of the pressure tracing. After 10 minutes of basal recording, L-NAME (50 mg/kg) was administered intraperitoneally and the effect on SBP monitored. When the SBP stabilized (5 minutes without variations) the recording was stopped. To further confirm that functional activity was NO-dependent, at each time point blood ^15N-nitrite levels were measured following the procedure described in Example 12.

[4] = tested on: rat L-NAME-induced hypertension; assay: In vivo tolerance evaluation (L-NAME-induced hypertension after 5-day oral treatment); conditions: for Delta vs basal (mmHg): peak effect 1 hour
Procedure: as §3
To investigate whether the compound (6) induced nitrate tolerance, as observed for most of the drugs belonging to the nitrate class, the L-NAME-induced hypertension rat model described in Example 7 was performed following a repeated oral treatment. Rats were orally treated for 5 days with vehicle, compound (6) (100 mg/kg) or 5-ISMN (30 mg/kg). […] The experiments were performed at the peak effect (1 hour for 5-ISMN and 3 hours for Compound (6)), results are reported in Table 3.

[5] = tested on: isolated aortas from rats; assay: Ex vivo tolerance evaluation (vascular response of isolated aortas from treated rats); format: in vivo, rat; conditions: for EC50: vascular response to 5-ISMN, 1 h after last administration
Procedure: (§4) Thoracic aortas from male New Zealand rabbits or male Sprague Dawley (SD) were used. The aortas were placed immediately in Krebs-HEPES buffer (pH 7.4; composition mM: NaCl 130.0, KCl 3.7, NaHCO3 14.9, KH2PO4 1.2, MgSO4.7H2O 1.2, Glucose 11.0, HEPES 10.0, CaCl2.2H2O 1.6). Connective tissue was removed and aortas were cut into ring segments (4-5 mm in length). Each ring was placed in a 5 mL tissue bath filled with Krebs-HEPES buffer (37° C.) aerated with 95% O2 and 5% CO2 and was attached to a force transducer (Grass FT03), connected to a BIOPAC MP150 System for measurement of the isometric tension. Preparations were allowed to equilibrate for 1 h at a resting tension of 2 g for rabbit aortas and 1 g for rat aortas with changes of the buffer every 15 min. Then the rings were stimulated by exposure to 90 mM KCl (3 times) with intervening washings.
(§5) Rat aorta. After equilibration, rat aortas were precontracted with KCl (90 mM) and, when the contraction was stable, a cumulative concentration-response curve to acetylcholine (ACh, 0.01-100 μM) was added. After washout, the rings were precontracted again with KCl (90 mM). When a steady-state level of contraction was obtained, a cumulative concentration-response curve to the tested compounds (0.01-100 μM) was obtained.
(§6) Data analysis. Results are given as mean±SEM. Vascular responses are expressed as percentage relaxation and plotted vs concentration. The sensitivity of isolated aorta to different vasodilators is expressed as the concentration that elicited 50% of the maximal responses (EC50). Responses are quantified in terms of EC50 and Emax (maximal vasodilating effect) values, obtained from the concentration-response curve by nonlinear curve fitting, using GraphPad software.
Tolerance to nitrate was further investigated assessing the vascular effects of Compound (6) following repeated treatment compared with 5-ISMN. The vascular response to the compound itself was assessed on isolated aortas from rats orally treated for 5 days with Compound (6) (100 mg/kg). The vascular response was performed as described in Example 6.
Vascular responses were performed 1 h (ISMN) or 3 h (Compound (6)) after the last administration, the concentrations of tested compound that elicited the 50% of the maximal responses (EC50) are shown in Table 4.

[6] = tested on: rat aorta, endothelial-dependent vasodilation (response to ACh); assay: Endothelial dysfunction evaluation (vascular response to acetylcholine after treatment); format: in vivo; conditions: for % relaxation (Emax): response to ACh
Procedure: as §4, §5, §6
Endothelial-dependent vasodilation (vascular response to acetylcholine, ACh) was assessed following 5-day treatment with Compound (6) (100 mg/kg) or 5-ISMN (30 mg/kg). A relaxant response to ACh indicated the presence of a functional endothelium. The vascular response was performed as described in Example 6.

[7] = Blood 15N-nitrite levels in the rat L-NAME-induced hypertension study; format: in vivo; conditions: 5-ISMN 30 mg/kg oral
Procedure: as §3, §2

## O=[N+]([O-])O[C@@H]1CO[C@H]2[C@@H]1OC[C@@H]2O [5-ISM^15N, 5-isorbide mononitrate containing nitrogen-15, reference compound]
[1]
  15N-nitrite AUC0-24: 7399 µM·min
  15N-nitrite Tmax: 60 min
  Cmax: 20.6 ± 4.2 µM
[2]; oral 30 mg/kg
  15N-nitrite AUC0-24: 2758 µM·min
  15N-nitrite Tmax: 30 min
  Cmax: 27.5 ± 3 µM

## O=[N+]([O-])O[C@@H]1CO[C@H]2[C@@H]1OC[C@@H]2O [Compound 5-ISMN, isosorbide-5-mononitrate, reference compound]
[3]; 1 hour
  Delta vs basal (mmHg): 10.5 ± 6.1 mmHg
[3]; 3 hours
  Delta vs basal (mmHg): 6.5 ± 2.4 mmHg
[3]; 6 hours
  Delta vs basal (mmHg): 51.2 ± 5.7 mmHg
[3]; 24 hours
  Delta vs basal (mmHg): 83 ± 9 mmHg
[3]; 5-ISMN 30 mg/kg, single oral administration
  time over which L-NAME induced hypertension was counteracted after treatment: ≤ 3 h
[4]; 5-ISMN 30 mg/kg oral, 5 days
  efficacy against L-NAME-induced hypertension after 5-day treatment (nitrate tolerance), in words: did not maintain its efficacy in preventing L-NAME-induced hypertension
[4]; acute treatment, 5-ISMN 30 mg/kg oral
  Delta vs basal (mmHg): 10.5 ± 6.1 mmHg
[4]; repeated (5 days) oral treatment, 5-ISMN 30 mg/kg
  Delta vs basal (mmHg): 88 ± 11.5 mmHg
[5]; 5-ISMN 30 mg/kg, repeated treatment
  vascular response of aortas from treated animals vs control arteries, in words: showed a reduced vascular response to 5-ISMN compared to control arteries
[5]; acute, aortas of rats given 5-ISMN 30 mg/kg
  EC50: 20 ± 0.6 µM
[5]; repeated (5 days oral) 5-ISMN 30 mg/kg
  EC50: 127 ± 48 µM
[6]; 5-ISMN 30 mg/kg, 5-day treatment
  effect on endothelial-dependent vasorelaxation, in words: caused a reduced response to Ach
[6]; acute, 5-ISMN 30 mg/kg
  % relaxation (Emax): 92.7 ± 4.3%
[6]; repeated (5-day) 5-ISMN 30 mg/kg
  % relaxation (Emax): 78.2 ± 9.2%
[7]; 1 hour
  15N-nitrite levels: 11.0 ± 0.5 µM
[7]; 3 hours
  15N-nitrite levels: 8.7 ± 0.7 µM
[7]; 6 hours
  15N-nitrite levels: 6.5 ± 0.5 µM
[7]; 24 hours
  15N-nitrite levels: 0.34 ± 0.06 µM

## COC1=C(OC)C(=O)C(CCCCCCCCCCO[15N+](=O)[O-])=C(C)C1=O [^15N-Compound (6), 10-(4,5-dimethoxy-2-methyl-3,6-dioxocyclohexa-1,4-dienyl)decyl nitrate-nitrogen-15]
[1]
  15N-nitrite AUC0-24: 2469 µM·min
  15N-nitrite Tmax: 180 min
[2]; oral 100 mg/kg
  15N-nitrite AUC0-24: 1225 µM·min
  15N-nitrite Tmax: 30 min

## COC1=C(OC)C(=O)C(CCCCCCCCCCO[N+](=O)[O-])=C(C)C1=O [^15N-Compound (6), 10-(4,5-dimethoxy-2-methyl-3,6-dioxocyclohexa-1,4-dienyl)decyl nitrate-nitrogen-15]
[1]
  Cmax: 2.6 ± 0.2 µM
[2]; oral 100 mg/kg
  Cmax: 3.1 ± 0.3 µM
